Patent US20240238425A1, “HSD17B13 Inhibitors and/or Degraders” (Pfizer Inc., priority 2022, published 2024)
Structures can show the parent of a compound that is named as a salt.

Tested on: HiBiT-HSD17β13 fusion protein (N-terminal HiBiT-tagged HSD17β13 isoform D) in Huh7 HiBiT-HSD17β13 OE cells
Assay: Whole-cell Huh7-HSD17B13 HiBiT assay (degrader potency and maximal efficacy, luminescence readout)
Format: cell-based, human
Details: 24 hour incubation, geometric mean, * = geometric mean for all forms tested (parent and salt forms); for DC50: read-out: Huh7_HIBIT-HSD17β13_DC50 GMean DC50; for Huh7_HIBIT-HSD17β13_DC50 GMean Asymptote Maximum: max. concentration 1 μM
In short: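 Huh7 cells stably overexpressing N-terminal HiBiT-tagged HSD17β13 isoform D, clone matched to primary hepatocyte expression, were exposed to an 11-point, 1 in 3.162 dilution series (top 1 μM final) for 24 h at 37° C. Lytic HiBiT luminescence was normalised to DMSO and parental-cell controls; DC50 from four-parameter logistic fit, with CellTiter-Glo counter screen.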

Structure (SMILES) | DC50 [pM] | Huh7_HIBIT-HSD17β13_DC50 GMean Asymptote Maximum [%]
Cn1c(=O)n(C2CCC(=O)NC2=O)c2ccc(CCCN3CCN(c4ccc(-c5ccc6cn([C@H]7CC[C@H](CNC(=O)c8cc(F)c(O)c(F)c8F)CC7)nc6c5)cn4)CC3)cc21 (mixture of isomers) [Example 92, N-{[(1r,4r)-4-(6-{6-[4-(3-{1-[(3RS)-2,6-dioxopiperidin-3-yl]-3-methyl-2-oxo-2,3-dihydro-1H-benzimidazol-5-yl}propyl)piperazin-1-yl]pyridin-3-yl}-2H-indazol-2-yl)cyclohexyl]methyl}-2,3,5-trifluoro-4-hydroxybenzamide] | 400 | 87
Cn1c(=O)n(C2CCC(=O)NC2=O)c2ccc(CCCN3CCN(c4cc5cn([C@H]6CC[C@H](CNC(=O)c7cc(F)c(O)c(F)c7F)CC6)nc5cn4)CC3)cc21 (mixture of isomers) [Example 93, N-{[(1r,4r)-4-{5-[4-(3-{1-[(3RS)-2,6-dioxopiperidin-3-yl]-3-methyl-2-oxo-2,3-dihydro-1H-benzimidazol-5-yl}propyl)piperazin-1-yl]-2H-pyrazolo[3,4-c]pyridin-2-yl}cyclohexyl]methyl}-2,3,5-trifluoro-4-hydroxybenzamide, formate salt] | 690 | 83
Cn1c(=O)n(C2CCC(=O)NC2=O)c2ccc(CCCN3CCN(c4ccc5cn([C@]67CC[C@](CNC(=O)c8cc(F)c(O)c(F)c8F)(CC6)CC7)nc5c4)CC3)cc21 (mixture of isomers) [Example 94, N-[(4-{6-[4-(3-{1-[(3RS)-2,6-dioxopiperidin-3-yl]-3-methyl-2-oxo-2,3-dihydro-1H-benzimidazol-5-yl}propyl)piperazin-1-yl]-2H-indazol-2-yl}bicyclo[2.2.2]octan-1-yl)methyl]-2,3,5-trifluoro-4-hydroxybenzamide] | 210 | 84
Cn1c(=O)n(C2CCC(=O)NC2=O)c2ccc(CCCN3CCN(c4ncc(-c5ccc6cn([C@]78CC[C@](CNC(=O)c9cc(F)c(O)c(F)c9F)(CC7)CC8)nc6c5)cn4)CC3)cc21 (mixture of isomers) [Example 95, N-{[4-(6-{2-[4-(3-{1-[(3RS)-2,6-dioxopiperidin-3-yl]-3-methyl-2-oxo-2,3-dihydro-1H-benzimidazol-5-yl}propyl)piperazin-1-yl]pyrimidin-5-yl}-2H-indazol-2-yl)bicyclo[2.2.2]octan-1-yl]methyl}-2,3,5-trifluoro-4-hydroxybenzamide, trifluoroacetate salt] | 240 | 80
Cn1c(=O)n(C2CCC(=O)NC2=O)c2ccc(CCCN3CCOC4(C3)CN(c3ccc5cn([C@H]6CC[C@H](CNC(=O)c7cc(F)c(O)c(F)c7F)CC6)nc5c3)C4)cc21 (mixture of isomers) [Example 98, N-{[(1r,4r)-4-{6-[8-(3-{1-[(3RS)-2,6-dioxopiperidin-3-yl]-3-methyl-2-oxo-2,3-dihydro-1H-benzimidazol-5-yl}propyl)-5-oxa-2,8-diazaspiro[3.5]nonan-2-yl]-2H-indazol-2-yl}cyclohexyl]methyl}-2,3,5-trifluoro-4-hydroxybenzamide, trifluoroacetate salt] | 820 | 78
Cn1c(=O)n(C2CCC(=O)NC2=O)c2ccc(CCCN3CC[C@@H]4CN(c5ccc6cn([C@H]7CC[C@H](CNC(=O)c8cc(F)c(O)c(F)c8F)CC7)nc6c5)C[C@H]4C3)cc21 (mixture of isomers) [Example 101, N-{[(1r,4r)-4-{6-[(3aR,7aS)-5-(3-{1-[(3RS)-2,6-dioxopiperidin-3-yl]-3-methyl-2-oxo-2,3-dihydro-1H-benzimidazol-5-yl}propyl)octahydro-2H-pyrrolo[3,4-c]pyridin-2-yl]-2H-indazol-2-yl}cyclohexyl]methyl}-2,3,5-trifluoro-4-hydroxybenzamide, formate salt] | 880 | 74
Cn1c(=O)n(C2CCC(=O)NC2=O)c2ccc(CCCN3C[C@@H]4CCN(c5ccc6cn([C@H]7CC[C@H](CNC(=O)c8cc(F)c(O)c(F)c8F)CC7)nc6c5)C[C@@H]4C3)cc21 (mixture of isomers) [Example 102, N-{[(1r,4r)-4-{6-[(3aS,7aR)-2-(3-{1-[(3RS)-2,6-dioxopiperidin-3-yl]-3-methyl-2-oxo-2,3-dihydro-1H-benzimidazol-5-yl}propyl)octahydro-5H-pyrrolo[3,4-c]pyridin-5-yl]-2H-indazol-2-yl}cyclohexyl]methyl}-2,3,5-trifluoro-4-hydroxybenzamide, formate salt] | 1500 | 74
Cn1c(=O)n(C2CCC(=O)NC2=O)c2ccc(CCN3CCOC4(C3)CN(c3ccc5cn([C@H]6CC[C@H](CNC(=O)c7cc(F)c(O)c(F)c7F)CC6)nc5c3)C4)cc21 (mixture of isomers) [Example 117, N-{[(1r,4r)-4-{6-[8-(2-{1-[(3RS)-2,6-dioxopiperidin-3-yl]-3-methyl-2-oxo-2,3-dihydro-1H-benzimidazol-5-yl}ethyl)-5-oxa-2,8-diazaspiro[3.5]nonan-2-yl]-2H-indazol-2-yl}cyclohexyl]methyl}-2,3,5-trifluoro-4-hydroxybenzamide, trifluoroacetate salt] | 950 | 79
Cn1c(=O)n(C2CCC(=O)NC2=O)c2ccc(CCCN3C[C@H]4CN(c5ccc6cn([C@H]7CC[C@H](CNC(=O)c8cc(F)c(O)c(F)c8F)CC7)nc6c5)C[C@@H]4C3)cc21 (mixture of isomers) [Example 118, N-{[(1r,4r)-4-{6-[(3aS,6aS)-5-(3-{1-[(3RS)-2,6-dioxopiperidin-3-yl]-3-methyl-2-oxo-2,3-dihydro-1H-benzimidazol-5-yl}propyl)hexahydropyrrolo[3,4-c]pyrrol-2(1H)-yl]-2H-indazol-2-yl}cyclohexyl]methyl}-2,3,5-trifluoro-4-hydroxybenzamide, trifluoroacetate salt] | 2900 | 78

Second part, led by results:

DC50 [pM] | Structure (SMILES) | Huh7_HIBIT-HSD17β13_DC50 GMean Asymptote Maximum [%]
1500 | Cn1c(=O)n(C2CCC(=O)NC2=O)c2ccc(CCCN3CCc4cc(-c5ccc6cn([C@H]7CC[C@H](CNC(=O)c8cc(F)c(O)c(F)c8F)CC7)nc6c5)ncc4C3)cc21 (mixture of isomers) [Example 88, N-{[(1r,4r)-4-{6-[7-(3-{1-[(3RS)-2,6-dioxopiperidin-3-yl]-3-methyl-2-oxo-2,3-dihydro-1H-benzimidazol-5-yl}propyl)-5,6,7,8-tetrahydro-2,7-naphthyridin-3-yl]-2H-indazol-2-yl}cyclohexyl]methyl}-2,3,5-trifluoro-4-hydroxybenzamide] | 81
2200 | Cn1c(=O)n(C2CCC(=O)NC2=O)c2ccc(CCCN3CCn4cc(-c5ccc6cn([C@H]7CC[C@H](CNC(=O)c8cc(F)c(O)c(F)c8F)CC7)nc6c5)nc4C3)cc21 (mixture of isomers) [Example 100, N-{[(1r,4r)-4-{6-[7-(3-{1-[(3RS)-2,6-dioxopiperidin-3-yl]-3-methyl-2-oxo-2,3-dihydro-1H-benzimidazol-5-yl}propyl)-5,6,7,8-tetrahydroimidazo[1,2-a]pyrazin-2-yl]-2H-indazol-2-yl}cyclohexyl]methyl}-2,3,5-trifluoro-4-hydroxybenzamide, formate salt] | 84
220 | Cn1c(=O)n(C2CCC(=O)NC2=O)c2ccc(CCN3Cc4ccc(-c5ccc6cn([C@H]7CC[C@H](CNC(=O)c8cc(F)c(O)c(F)c8F)CC7)nc6c5)cc4C3)cc21 (mixture of isomers) [Example 106, N-{[(1r,4r)-4-{6-[2-(2-{1-[(3RS)-2,6-dioxopiperidin-3-yl]-3-methyl-2-oxo-2,3-dihydro-1H-benzimidazol-5-yl}ethyl)-2,3-dihydro-1H-isoindol-5-yl]-2H-indazol-2-yl}cyclohexyl]methyl}-2,3,5-trifluoro-4-hydroxybenzamide, trifluoroacetate salt] | 80
260 | Cn1c(=O)n(C2CCC(=O)NC2=O)c2ccc(CCCN3CCc4nc(-c5ccc6cn([C@H]7CC[C@H](CNC(=O)c8cc(F)c(O)c(F)c8F)CC7)nc6c5)sc4C3)cc21 (mixture of isomers) [Example 115, N-{[(1r,4r)-4-{6-[5-(3-{1-[(3RS)-2,6-dioxopiperidin-3-yl]-3-methyl-2-oxo-2,3-dihydro-1H-benzimidazol-5-yl}propyl)-4,5,6,7-tetrahydro[1,3]thiazolo[5,4-c]pyridin-2-yl]-2H-indazol-2-yl}cyclohexyl]methyl}-2,3,5-trifluoro-4-hydroxybenzamide, trifluoroacetate salt] | 79
200 | Cn1c(=O)n(C2CCC(=O)NC2=O)c2ccc(CCCN3Cc4cc(-c5ccc6cn([C@H]7CC[C@H](CNC(=O)c8cc(F)c(O)c(F)c8F)CC7)nc6c5)cnc4C3)cc21 (mixture of isomers) [Example 116, N-{[(1r,4r)-4-{6-[6-(3-{1-[(3RS)-2,6-dioxopiperidin-3-yl]-3-methyl-2-oxo-2,3-dihydro-1H-benzimidazol-5-yl}propyl)-6,7-dihydro-5H-pyrrolo[3,4-b]pyridin-3-yl]-2H-indazol-2-yl}cyclohexyl]methyl}-2,3,5-trifluoro-4-hydroxybenzamide, trifluoroacetate salt] | 88
280 | Cn1c(=O)n(C2CCC(=O)NC2=O)c2ccc(CCCN3Cc4cnc(-c5ccc6cn([C@H]7CC[C@H](CNC(=O)c8cc(F)c(O)c(F)c8F)CC7)nc6c5)cc4C3)cc21 (mixture of isomers) [Example 119, N-{[(1r,4r)-4-{6-[2-(3-{1-[(3RS)-2,6-dioxopiperidin-3-yl]-3-methyl-2-oxo-2,3-dihydro-1H-benzimidazol-5-yl}propyl)-2,3-dihydro-1H-pyrrolo[3,4-c]pyridin-6-yl]-2H-indazol-2-yl}cyclohexyl]methyl}-2,3,5-trifluoro-4-hydroxybenzamide, formate salt] | 75
